Results from patent publication US10227357B2, “Compounds and methods for kinase modulation, and indications therefor” (Plexxikon Inc., priority 2012, dated 2019).

Experiments:
c-kit kinase = biological target: T1, c-kit kinase (Homo sapiens, UniProt P10721); test: c-Kit biochemical assay, AlphaScreen, 10 μM ATP; settings: c-kit biochemical inhibitory activity; read-out: Biochemical activity (IC50 μM) Kit
T1 construct: The c-kit (or kinase domain thereof) is an active kinase in AlphaScreen; poly-Histidine tag (in-house protein only) (cleaved yes); host or cells: E. coli BL21(DE3)RIL, co-expressed with PTP1B
Procedure: IC50 values are determined with respect to inhibition of c-Kit kinase activity, where inhibition of phosphorylation of a peptide substrate is measured as a function of compound concentration. Compounds to be tested were dissolved in DMSO to a concentration of 20 mM. These were diluted 30 μl into 120 μl of DMSO (4 mM) and 1 μl was added to an assay plate. These were then serially diluted 1:3 (50 μl to 100 μl DMSO) for a total of 8 points. Plates were prepared such that each kinase reaction is 20 μl in 1× kinase buffer (50 mM HEPES, pH 7.2, 5 mM MgCl2, 5 mM MnCl2, 0.01% NP-40, 0.2% BSA), 5% DMSO and 10 μM ATP. […] C-kit kinase was at 0.1 ng per sample. After incubation of the kinase reaction for 1 hour at room temperature, 5 μl of donor beads (Streptavidin coated beads (Perkin Elmer Life Science) final concentration 1 μg/ml) in stop buffer (50 mM EDTA in 1× kinase buffer) was added, the sample was mixed and incubated for 20 minutes at room temperature before adding 5 μl of acceptor beads (PY20 coated beads (Perkin Elmer Life Science) final concentration 1 μg/ml) in stop buffer. The samples were incubated for 60 minutes at room temperature and the signal per well was read on AlphaQuest reader. […] The signal vs. compound concentration was used to determine the IC50.
Complementary DNA cloned from various human tissues were purchased from Invitrogen, and these were used as substrates in the PCR reactions. Specific custom synthetic oligonucleotide primers were designed to initiate the PCR product, and also to provide the appropriate restriction enzyme cleavage sites for ligation with the plasmids. The entire sequence encoding the enzyme was made through a gene synthesis procedure, using custom synthetic oligonucleotides covering the entire coding sequence (Invitrogen, see below).
The plasmid used for ligation with the kinase-encoding inserts was derivative of pET (Novagen) for expression using E. coli. The Kit kinase was engineered to include a Histidine tag for purification using metal affinity chromatography. The kinase-encoding plasmid was engineered as bicistronic mRNA to co-express a second protein that modifies the kinase protein during its expression in the host cell. Protein tyrosine phosphatase 1B (PTP), was co-expressed for dephosphorylation of the phospho-Tyrosines.
For protein expression, the plasmid containing the Kit gene was transformed into E. coli strains BL21(DE3)RIL and transformants selected for growth on LB agar plates containing appropriate antibiotics. Single colonies were grown overnight at 37° C. in 200 ml TB (Terrific broth) media. 16×1 L of fresh TB media in 2.8 L flasks were inoculated with 10 ml of overnight culture and grown with constant shaking at 37° C. Once cultures reached an absorbance of 1.0 at 600 nm, IPTG was added and cultures were allowed to grow for a further 12 to 18 hrs at temperatures ranging from 12-30° C. Cells were harvested by centrifugation and pellets frozen at […] until ready for lysis.
For protein Purification; frozen E. coli cell pellets were resuspended in lysis buffer and lysed using standard mechanical methods. Protein was purified via poly-Histidine tags using immobilized metal affinity purification IMAC. The Kit kinase was purified using a 3 step purification process utilizing; IMAC, size exclusion chromatography and ion exchange chromatography. The poly-Histidine tag was removed using Thrombin (Calbiochem).

c-kit mutant D816V = biological target: T2, c-kit mutant D816V (Homo sapiens, UniProt P10721, D816V/DEL694-753); test: c-Kit mutant D816V biochemical assay, AlphaScreen; settings: c-kit D816V biochemical inhibitory activity; read-out: Biochemical activity (IC50 μM) Kit D816V
T2 construct: residues 551-934, kinase insertion domain residues 694-753 deleted; 6x-histidine (N); made in house; host or cells: E. coli Arctic Express (DE3) RIL (Stratagene)
Outline: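 Purified His-tagged c-Kit D816V (E. coli-expressed) assayed in 25 mM HEPES pH 7.2 with Mg/Mn, 5% DMSO and 10 μM ATP, 30 min at room temperature, 8-point 1:3 dilutions. Phosphorylation detected by AlphaScreen with streptavidin donor and PY20 acceptor beads; IC50 from signal versus concentration.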

T2 sequence (P10721 with tags, fused parts or gaps DEL694-753/D816V): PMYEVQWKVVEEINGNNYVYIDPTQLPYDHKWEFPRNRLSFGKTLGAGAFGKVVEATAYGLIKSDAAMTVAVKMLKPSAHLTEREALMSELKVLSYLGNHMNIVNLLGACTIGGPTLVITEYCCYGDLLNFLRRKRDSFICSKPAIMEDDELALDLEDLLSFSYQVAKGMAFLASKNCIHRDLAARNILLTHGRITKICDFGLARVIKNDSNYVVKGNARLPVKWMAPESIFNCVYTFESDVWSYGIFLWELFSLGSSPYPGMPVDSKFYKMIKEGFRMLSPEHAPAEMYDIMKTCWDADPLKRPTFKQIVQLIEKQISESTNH
T1 sequence (P10721 26-976): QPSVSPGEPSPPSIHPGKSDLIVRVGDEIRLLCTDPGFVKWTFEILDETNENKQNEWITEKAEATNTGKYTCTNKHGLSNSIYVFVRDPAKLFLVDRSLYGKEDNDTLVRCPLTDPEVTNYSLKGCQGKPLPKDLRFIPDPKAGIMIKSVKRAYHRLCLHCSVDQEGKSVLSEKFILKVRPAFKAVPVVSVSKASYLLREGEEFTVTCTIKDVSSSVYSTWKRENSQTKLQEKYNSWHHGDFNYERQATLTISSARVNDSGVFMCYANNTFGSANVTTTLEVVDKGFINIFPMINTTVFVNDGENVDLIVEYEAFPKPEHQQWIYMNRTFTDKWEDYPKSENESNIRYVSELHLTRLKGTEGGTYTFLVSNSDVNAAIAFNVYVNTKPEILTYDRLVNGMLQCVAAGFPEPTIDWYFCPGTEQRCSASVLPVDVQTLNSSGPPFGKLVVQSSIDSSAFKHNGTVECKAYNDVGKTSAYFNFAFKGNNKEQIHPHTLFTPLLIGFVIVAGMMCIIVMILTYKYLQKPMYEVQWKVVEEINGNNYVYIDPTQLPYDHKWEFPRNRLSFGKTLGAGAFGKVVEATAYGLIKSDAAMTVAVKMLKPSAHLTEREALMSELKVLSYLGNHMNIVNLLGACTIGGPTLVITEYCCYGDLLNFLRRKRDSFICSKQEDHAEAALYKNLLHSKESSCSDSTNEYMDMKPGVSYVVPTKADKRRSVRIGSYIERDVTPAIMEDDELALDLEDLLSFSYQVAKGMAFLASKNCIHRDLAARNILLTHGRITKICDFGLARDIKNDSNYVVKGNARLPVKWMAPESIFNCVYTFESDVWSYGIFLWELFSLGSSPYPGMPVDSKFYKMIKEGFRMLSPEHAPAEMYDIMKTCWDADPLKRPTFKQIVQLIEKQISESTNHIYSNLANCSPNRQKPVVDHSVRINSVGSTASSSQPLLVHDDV

SMILES | IC50 (c-kit kinase) [µM] | IC50 (c-kit mutant D816V) [µM]
O=C(C1CCCC1)N1CCN(c2ncnc3[nH]ccc23)CC1 [P-0196, cyclopentyl-[4-(7H-pyrrolo[2,3-d]pyrimidin-4-yl)piperazin-1-yl]methanone] | 10 to 200 | 
O=C(c1ccccc1)N1CCN(c2ncnc3[nH]ccc23)CC1 [P-0198, phenyl-[4-(7H-pyrrolo[2,3-d]pyrimidin-4-yl)piperazin-1-yl]methanone] | 10 to 200 | 
Fc1ccc(-c2cc3c(-c4ccc(F)cc4)ncnc3[nH]2)cc1 [P-0395, 4,6-bis(4-fluorophenyl)-7H-pyrrolo[2,3-d]pyrimidine] | 0.0001 to 1 | 
O=C(Nc1ccc(F)c(F)c1)N1CCN(c2ncnc3[nH]ccc23)CC1 [P-0175, N-(3,4-difluorophenyl)-4-(7H-pyrrolo[2,3-d]pyrimidin-4-yl)piperazine-1-carboxamide] | 10 to 200 | 
CCOc1ccc(NC(=O)NC2CCN(c3ncnc4[nH]ccc34)CC2)cc1 [P-0534, 1-(4-ethoxyphenyl)-3-[1-(7H-pyrrolo[2,3-d]pyrimidin-4-yl)-4-piperidyl]urea] | 10 to 200 | 
COc1ccc(NC(=O)N2CCN(c3ncnc4[nH]c(I)cc34)CC2)cc1 [P-0244, 4-(6-iodo-7H-pyrrolo[2,3-d]pyrimidin-4-yl)-N-(4-methoxyphenyl)piperazine-1-carboxamide] | 1 to 10 | 
C[C@H]1CN(c2ncnc3[nH]c(-c4ccncc4)cc23)CCN1C(=O)Nc1ccc(OC(F)(F)F)cc1 [P-0043, (2S)-2-methyl-4-[6-(4-pyridyl)-7H-pyrrolo[2,3-d]pyrimidin-4-yl]-N-[4-(trifluoromethoxy)phenyl]piperazine-1-carboxamide] | 0.0001 to 1 | 
O=C(NC1CCCCC1)N1CCN(c2ncnc3[nH]ccc23)CC1 [P-0204, N-cyclohexyl-4-(7H-pyrrolo[2,3-d]pyrimidin-4-yl)piperazine-1-carboxamide] | 10 to 200 | 
CC(C)(C)c1cc2ncnc(N3CCN(C(=O)Nc4ccc(F)cc4)CC3)c2s1 [P-0639, 4-(6-tert-butylthieno[3,2-d]pyrimidin-4-yl)-N-(4-fluorophenyl)piperazine-1-carboxamide] | 10 to 200 | 
COc1cccc([C@H](C)NC(=O)N2CCN(c3ncnc4cc(N5CCOCC5)sc34)CC2)c1 [P-0548, N-[(1S)-1-(3-methoxyphenyl)ethyl]-4-(6-morpholinothieno[3,2-d]pyrimidin-4-yl)piperazine-1-carboxamide] | 1 to 10 | 
Cn1cc(-c2cc3c(C4=CCC(NS(=O)(=O)c5ccc(OC(F)(F)F)cc5)CC4)ncnc3[nH]2)cn1 (stereo not drawn) [P-0545, N-[4-[6-(1-methylpyrazol-4-yl)-7H-pyrrolo[2,3-d]pyrimidin-4-yl]cyclohex-3-en-1-yl]-4-(trifluoromethoxy)benzenesulfonamide] | 1 to 10 | 
Cc1ccc(-c2cc3c(C4=CCC(NS(=O)(=O)c5ccc(OC(F)(F)F)cc5)CC4)ncnc3[nH]2)cn1 (stereo not drawn) [P-0544, N-[4-[6-(6-methyl-3-pyridyl)-7H-pyrrolo[2,3-d]pyrimidin-4-yl]cyclohex-3-en-1-yl]-4-(trifluoromethoxy)benzenesulfonamide] | 10 to 200 | 
O=C(NC1CCN(c2ncnc3[nH]ccc23)CC1)C1CCCCC1 [P-0528, N-[1-(7H-pyrrolo[2,3-d]pyrimidin-4-yl)-4-piperidyl]cyclohexanecarboxamide] | 10 to 200 | 
C[C@H](NC(=O)N1CCN(c2ncnc3[nH]c(-c4ccncc4)cc23)C[C@@H]1C)c1ccc(F)cc1 [P-0049, (2S)-N-[(1S)-1-(4-fluorophenyl)ethyl]-2-methyl-4-[6-(4-pyridyl)-7H-pyrrolo[2,3-d]pyrimidin-4-yl]piperazine-1-carboxamide] |  | 0.0001 to 1
Cn1cc(-c2cc3c(N4CCC(NS(=O)(=O)c5ccc(F)cc5)CC4)ncnc3[nH]2)cn1 [P-0490, 4-fluoro-N-[1-[6-(1-methylpyrazol-4-yl)-7H-pyrrolo[2,3-d]pyrimidin-4-yl]-4-piperidyl]benzenesulfonamide] |  | 1 to 10
Cc1cc2c(C3=CCC(NS(=O)(=O)c4ccc(OC(C)C)cc4)CC3)ncnc2[nH]1 (stereo not drawn) [P-0652, 4-isopropoxy-N-[4-(6-methyl-7H-pyrrolo[2,3-d]pyrimidin-4-yl)cyclohex-3-en-1-yl]benzenesulfonamide] |  | 1 to 10
Cc1ccccc1C(=O)c1c[nH]c2ncnc(N3CCN(C(=O)NCc4ccc(F)cc4)CC3)c12 [P-0160, N-[(4-fluorophenyl)methyl]-4-[5-(2-methylbenzoyl)-7H-pyrrolo[2,3-d]pyrimidin-4-yl]piperazine-1-carboxamide] |  | 1 to 10
Nc1ccc(-c2ncnc3[nH]c(-c4ccc(F)cc4F)cc23)c(F)c1 [P-0341, 4-[6-(2,4-difluorophenyl)-7H-pyrrolo[2,3-d]pyrimidin-4-yl]-3-fluoro-aniline] |  | 0.0001 to 1
C[C@H](NC(=O)N1CCN(c2ncnc3cc(Br)sc23)CC1)c1ccc(F)cc1 [P-0597, 4-(6-bromothieno[3,2-d]pyrimidin-4-yl)-N-[(1S)-1-(4-fluorophenyl)ethyl]piperazine-1-carboxamide] |  | 1 to 10
C[C@H](NC(=O)N1CCN(c2ncnc3cc(-c4ccc(F)cc4)sc23)CC1(C)C)c1cccc(F)c1 [P-0578, N-[(1S)-1-(3-fluorophenyl)ethyl]-4-[6-(4-fluorophenyl)thieno[3,2-d]pyrimidin-4-yl]-2,2-dimethyl-piperazine-1-carboxamide] |  | 1 to 10
O=C(NCCc1ccc(Cl)cc1)N1CCN(c2ncnc3[nH]c(-c4ccc(F)cc4)cc23)CC1 [P-0161, N-[2-(4-chlorophenyl)ethyl]-4-[6-(4-fluorophenyl)-7H-pyrrolo[2,3-d]pyrimidin-4-yl]piperazine-1-carboxamide] |  | 0.0001 to 1
Cc1ccc(NS(=O)(=O)N2CCN(c3ncnc4[nH]c(-c5ccc(Cl)cc5)cc34)CC2)cc1 [P-0142, 4-[6-(4-chlorophenyl)-7H-pyrrolo[2,3-d]pyrimidin-4-yl]-N-(p-tolyl)piperazine-1-sulfonamide] |  | 10 to 200
CC1(C)C=C(c2cc3c(N4CCC(NS(=O)(=O)c5ccc(OC(F)(F)F)cc5)CC4)ncnc3[nH]2)CC(C)(C)O1 [P-0663, N-[1-[6-(2,2,6,6-tetramethyl-3H-pyran-4-yl)-7H-pyrrolo[2,3-d]pyrimidin-4-yl]-4-piperidyl]-4-(trifluoromethoxy)benzenesulfonamide] |  | 10 to 200
C[C@@H]1CN(c2ncnc3[nH]c(-c4ccc(Cl)cc4)cc23)CCN1C(=O)N[C@H](C)c1ccc(F)cc1 [P-0022, (2R)-4-[6-(4-chlorophenyl)-7H-pyrrolo[2,3-d]pyrimidin-4-yl]-N-[(1R)-1-(4-fluorophenyl)ethyl]-2-methyl-piperazine-1-carboxamide] |  | 0.0001 to 1
Cc1ncc(-c2cc3c(N4CCC(NS(=O)(=O)c5ccc(OC(F)(F)F)cc5)CC4)ncnc3[nH]2)s1 [P-0463, N-[1-[6-(2-methylthiazol-5-yl)-7H-pyrrolo[2,3-d]pyrimidin-4-yl]-4-piperidyl]-4-(trifluoromethoxy)benzenesulfonamide] |  | 10 to 200
COc1cc(-c2cc3c(N4CCN(C(=O)N[C@@H](C)c5cccc(Cl)c5)[C@H](C)C4)ncnc3[nH]2)ccn1 [P-0711, (2R)-N-[(1S)-1-(3-chlorophenyl)ethyl]-4-[6-(2-methoxy-4-pyridyl)-7H-pyrrolo[2,3-d]pyrimidin-4-yl]-2-methyl-piperazine-1-carboxamide] |  | 0.0001 to 1
NS(=O)(=O)c1ccc(-c2ncnc3[nH]c(-c4cnc(C5CC5)nc4)cc23)cc1 [P-0385, 4-[6-(2-cyclopropylpyrimidin-5-yl)-7H-pyrrolo[2,3-d]pyrimidin-4-yl]benzenesulfonamide] |  | 1 to 10
